From ChEMBL document CHEMBL2311501, “Discovery and preliminary structure-activity relationship analysis of 1,14-sperminediphenylacetamides as potent and selective antimalarial lead compounds” (Bioorg Med Chem Lett, 2013)
pIC50: −log10 of the molar value.

Columns and labels:
[1] = test system: L6; test: Cytotoxicity against rat L6 cells after 72 hrs by Alamar blue assay; assay type: cell-based; conditions: L6, 72 h
[2] = test system: Trypanosoma brucei rhodesiense; test: Antiprotozoal activity against Trypanosoma brucei rhodesiense STIB 900 after 72 hrs by Alamar blue assay; assay type: functional, organism-based; conditions: STIB 900, 72 h
[3] = test system: L6; test: Cytotoxicity against rat L6 cells at 10 uM after 72 hrs by Alamar blue assay; assay type: cell-based; conditions: l6, 72 h
[4] = test system: Trypanosoma cruzi; test: Antiprotozoal activity against Trypanosoma cruzi Tulahuen C4 amastigotes after 96 hrs; assay type: functional, organism-based; conditions: Tulahuen C4, 96 h
[5] = test system: Plasmodium falciparum; test: Antiprotozoal activity against erythrocytic stages of Plasmodium falciparum K1 by [3H]hypoxanthine incorporation assay; assay type: functional, organism-based
[6] = test system: Leishmania donovani; test: Antiprotozoal activity against amastigote/ axenic stage of Leishmania donovani MHOM-ET-67/L82 after 72 hrs by Alamar blue assay; assay type: functional, organism-based; conditions: MHOM-ET-67/L82, 72 h

pIC50 [2]	pIC50 [4]	pIC50 [5]	Compound	pIC50 [1]	Activity [3]	pIC50 [6]
4.02	< 3.85	6.85	O=C(Cc1ccccc1)NCCCNCCCCNCCCNC(=O)Cc1ccccc1	< 3.85	Non-toxic	4.05
3.92	< 3.92	< 5.17	COc1cc(CC(=O)NCCCNCCNCCCNC(=O)Cc2ccc(O)c(OC)c2)ccc1O	< 3.92		< 3.92
3.68	< 3.66	< 4.92	COc1cc(CC(=O)NCCCCNC(=O)Cc2ccc(O)c(OC)c2)ccc1O	< 3.66		< 3.66
3.96	< 3.55	< 4.82	O=C(Cc1ccccc1)NCCCCNC(=O)Cc1ccccc1	< 3.55		< 3.55
5.48	< 3.64	< 4.89	O=C(Cc1ccc(O)c(O)c1)NCCCCNC(=O)Cc1ccc(O)c(O)c1	3.89		< 3.64
3.96	< 3.80	< 5.04	COc1cc(CC(=O)NCCCOCCOCCOCCCNC(=O)Cc2ccc(O)c(OC)c2)ccc1O	< 3.80		3.82
4.20	< 3.70	< 4.96	O=C(Cc1ccccc1)NCCCOCCOCCOCCCNC(=O)Cc1ccccc1	< 3.70		< 3.70
5.28	< 3.77	< 5.02	O=C(Cc1ccc(O)c(O)c1)NCCCOCCOCCOCCCNC(=O)Cc1ccc(O)c(O)c1	4.02		< 3.77
3.82	< 3.66	< 4.92	COc1cc(CC(=O)NCCN2CCOCC2)ccc1O	3.68		< 3.66
3.77	< 3.60	< 4.85	COc1cc(CC(=O)NCCN(C)C)ccc1O	< 3.60		< 3.60
		4.46	NCCCNCCCCNCCCNC(=O)Cc1ccccc1	4.03		
		5.10	O=C(Cc1ccccc1)NCCCNCCCCNCCCNC(=O)C(F)(F)F	3.96		
4.06	< 3.89	6.77	O=C(Cc1cccc(O)c1)NCCCNCCCCNCCCNC(=O)Cc1cccc(O)c1	< 3.89	Non-toxic	< 3.89
4.07	< 3.89	6.85	O=C(Cc1ccc(O)cc1)NCCCNCCCCNCCCNC(=O)Cc1ccc(O)cc1	3.89	Non-toxic	< 3.89
5.49	< 3.92	5.32	O=C(Cc1ccc(O)c(O)c1)NCCCNCCCCNCCCNC(=O)Cc1ccc(O)c(O)c1	4.07	Non-toxic	< 3.92
4.42	4.51	7.72	COc1ccc(OC)c(CC(=O)NCCCNCCCCNCCCNC(=O)Cc2cc(OC)ccc2OC)c1	4.06	Non-toxic	4.46
4.31	< 3.89	6.21	O=C(Cc1ccccc1O)NCCCNCCNCCCNC(=O)Cc1ccccc1O	< 3.89	Non-toxic	< 3.89
3.82	< 3.82	< 5.07	COc1cc(CC(=O)NCCCCNCCCNC(=O)Cc2ccc(O)c(OC)c2)ccc1O	< 3.82		< 3.82
3.92	< 3.77	5.44	O=C(Cc1ccc(O)cc1)NCCCCNCCCNC(=O)Cc1ccc(O)cc1	< 3.77		< 3.77
5.23	< 3.80	5.10	O=C(Cc1ccc(O)c(O)c1)NCCCCNCCCNC(=O)Cc1ccc(O)c(O)c1	4.01	Non-toxic	< 3.80
3.96	< 3.80	< 5.05	COc1cc(CC(=O)NCCCNCCNC(=O)Cc2ccc(O)c(OC)c2)ccc1O	< 3.80		< 3.80
3.92	< 3.74	< 5.00	O=C(Cc1cccc(O)c1)NCCCNCCNC(=O)Cc1cccc(O)c1	< 3.74		< 3.74
5.12	< 3.77	< 5.03	O=C(Cc1ccc(O)c(O)c1)NCCCNCCNC(=O)Cc1ccc(O)c(O)c1	3.85	Non-toxic	< 3.77
4.11	< 3.92	6.05	COc1cc(CC(=O)NCCCNCCCCNCCCNC(=O)Cc2ccc(O)c(OC)c2)ccc1O	< 3.92	Non-toxic	< 3.92
4.29	< 3.89	8.07	O=C(Cc1ccccc1O)NCCCNCCCCNCCCNC(=O)Cc1ccccc1O	< 3.89	Non-toxic	3.96
			COc1cc([C@@H]2c3cc4c(cc3[C@H](O)[C@H]3COC(=O)[C@H]23)OCO4)cc(OC)c1OC [PODOFILOX]	7.72		
